Results from the NIST ThermoML archive (doi:10.1021/je034203p).

Assays:
[1] = 298.15 K, 101.3 kPa, Liquid; for viscosity: Capillary tube (Ostwald / Ubbelohde) method
[2] = xn = mol fraction of the nth substance listed; details: 298.15 K, 101.3 kPa, Liquid; for viscosity: Capillary tube (Ostwald / Ubbelohde) method

CC(C)=O [acetone]
[1]
Details	mass density [kg/m3]	viscosity [mPa·s]
–	780.8	0.3121

c1ccccc1 [benzene]
[1]
Details	mass density [kg/m3]	viscosity [mPa·s]
–	869.7	0.608

CCCCO [butan-1-ol]
[1]
Details	mass density [kg/m3]	viscosity [mPa·s]
–	806.3	2.538

CCC(C)O (configuration not stated) [butan-2-ol]
[1]
Details	mass density [kg/m3]	viscosity [mPa·s]
–	804.8	3.103

CCC(C)=O [butanone]
[1]
Details	mass density [kg/m3]	viscosity [mPa·s]
–	797.4	0.4011

CCO [ethanol]
[1]
Details	mass density [kg/m3]	viscosity [mPa·s]
–	787.4	1.112

CCOC(C)=O [ethyl acetate]
[1]
Details	mass density [kg/m3]	viscosity [mPa·s]
–	894	0.4274

CO [methanol]
[1]
Details	mass density [kg/m3]	viscosity [mPa·s]
–	788.1	0.5482

COC(C)=O [methyl ethanoate]
[1]
Details	mass density [kg/m3]	viscosity [mPa·s]
–	923.9	0.3711

CCCO [propan-1-ol]
[1]
Details	mass density [kg/m3]	viscosity [mPa·s]
–	800	1.954

CC(C)O [propan-2-ol]
[1]
Details	mass density [kg/m3]	viscosity [mPa·s]
–	784.3	2.044

ClC(Cl)=C(Cl)Cl [tetrachloroethene]
[1]
Details	mass density [kg/m3]	viscosity [mPa·s]
–	1610.2	0.8474

ClC(Cl)=C(Cl)Cl [tetrachloroethene] + c1ccccc1
[2]
Details	mass density [kg/m3]	viscosity [mPa·s]
x1 = 0.0883	939.8	0.6141
x1 = 0.1788	1011.5	0.6279
x1 = 0.272	1084.6	0.6438
x1 = 0.3674	1156.7	0.6618
x1 = 0.4655	1228.8	0.6834
x1 = 0.5671	1302.3	0.7088
x1 = 0.6706	1377.4	0.7367
x1 = 0.777	1453.2	0.7693
x1 = 0.8873	1531.7	0.8051
x1 = 1	1610.2	0.8474

ClC(Cl)(Cl)Cl [tetrachloromethane] + ClC(Cl)=C(Cl)Cl
[2], x2 = 0
Details	mass density [kg/m3]	viscosity [mPa·s]
–	1586.1	0.9096

ClC(Cl)(Cl)Cl [tetrachloromethane] + ClC=C(Cl)Cl
[2], x2 = 0
Details	mass density [kg/m3]	viscosity [mPa·s]
–	1586.1	0.9096

Cc1ccccc1 [toluene] + ClC(Cl)=C(Cl)Cl
[2], x2 = 0
Details	mass density [kg/m3]	viscosity [mPa·s]
–	860.5	0.5641

Cc1ccccc1 [toluene] + ClC=C(Cl)Cl
[2], x2 = 0
Details	mass density [kg/m3]	viscosity [mPa·s]
–	860.5	0.5641

ClC=C(Cl)Cl [trichloroethene] + CC(C)=O
[2]
Details	mass density [kg/m3]	viscosity [mPa·s]
x1 = 0.084	845.9	0.3412
x1 = 0.1712	912.3	0.3688
x1 = 0.2608	978.8	0.3958
x1 = 0.3544	1045	0.4244
x1 = 0.4519	1111.6	0.4501
x1 = 0.5528	1179	0.4723
x1 = 0.6582	1246.4	0.4906
x1 = 0.7671	1315.6	0.5107
x1 = 0.8815	1385.7	0.5309
x1 = 1	1455.7	0.551

ClC=C(Cl)Cl [trichloroethene] + CC(C)O
[2]
Details	mass density [kg/m3]	viscosity [mPa·s]
x1 = 0.0866	850.4	1.764
x1 = 0.1754	916.6	1.514
x1 = 0.2667	982.1	1.306
x1 = 0.3613	1047.6	1.119
x1 = 0.4594	1113.9	0.9582
x1 = 0.5602	1180.9	0.8218
x1 = 0.665	1249.2	0.7173
x1 = 0.7724	1316.8	0.6451
x1 = 0.8846	1385.9	0.6004
x1 = 1	1455.7	0.551

ClC=C(Cl)Cl [trichloroethene] + CCC(C)=O
[2]
Details	mass density [kg/m3]	viscosity [mPa·s]
x1 = 0.1004	861.2	0.4307
x1 = 0.2005	924.2	0.4566
x1 = 0.3002	987.2	0.4835
x1 = 0.4005	1052.5	0.5088
x1 = 0.5005	1117.6	0.5281
x1 = 0.6007	1183.7	0.5391
x1 = 0.7004	1249.6	0.5455
x1 = 0.8004	1315.5	0.5499
x1 = 0.8998	1385.4	0.5495
x1 = 1	1455.7	0.551

ClC=C(Cl)Cl [trichloroethene] + CCC(C)O
[2]
Details	mass density [kg/m3]	viscosity [mPa·s]
x1 = 0.102	868.5	2.502
x1 = 0.2035	932.3	2.019
x1 = 0.304	996.3	1.641
x1 = 0.4049	1061.2	1.344
x1 = 0.505	1125.4	1.128
x1 = 0.6051	1190.1	0.9463
x1 = 0.7042	1255.7	0.8155
x1 = 0.8033	1322	0.7014
x1 = 0.9014	1388.3	0.6101
x1 = 1	1455.7	0.551

ClC=C(Cl)Cl [trichloroethene] + CCCCO
[2]
Details	mass density [kg/m3]	viscosity [mPa·s]
x1 = 0.1018	870	2.098
x1 = 0.2033	934.3	1.734
x1 = 0.3038	997.5	1.429
x1 = 0.4042	1061.9	1.19
x1 = 0.5046	1126.5	1.008
x1 = 0.6045	1191.4	0.8696
x1 = 0.7042	1257	0.7737
x1 = 0.8025	1321.9	0.6878
x1 = 0.9014	1388.3	0.6227
x1 = 1	1455.7	0.551
